Values quoted from earlier work in patent US9475888B2, “Non anti-coagulative glycosaminoglycans comprising repeating disaccharide unit and their medical use” (DILAFOR AB, priority 2011, dated 2016).

Assays:
uterus = conditions: Acta Obstetricia et Gynecologica, 2010; 89:147-150
protracted labor = conditions: women receiving prophylaxis for deep venous thrombosis
[1] = species not specified

corresponding bioavailability (subcutaneous) [1]	Substance	contractility of the uterus (uterus)	protracted labor (protracted labor)
–	dalteparin	increase	decrease
about 10%	Heparin	–	–
